target: T1, PDHK2 (Homo sapiens, UniProt Q15119); assay: Biochemical activity testing of PDHK2: PDC inactivation assay; settings: human rec PDHK2, PDC from porcine heart, ATP 5 μM; read-out: IC50 PDHK2 (enzyme assay)
T1 construct: purchased Carna Bioscience
From the text: Biochemical Activity Testing of PDHK2: PDC Inactivation Assay
The biochemical activity assay for PDHK2 is based on the inactivation of PDC through phosphorylation by PDHK2. The assay is run in two steps: the enzymatic PDHK2 reaction in which isolated PDC is phosphorylated by PDHK2 with ATP as co-substrate and the PDC activity assay in which pyruvate and NAD are converted to acetyl-CoA and NADH. The PDC activity correlates to the increase in NADH and thereby is detectable directly via the increasing fluorescence signal (Exc 340 nm, Em 450 nm). Inhibition of PDHK2 results in a lower phosphorylation status and thereby a less decrease in activity of PDC and a stronger increase in NADH fluorescence signal.
The PDC inactivation assay is performed in Greiner 384-well microtiter plates and is used for high throughput screen. 4 μl of PDHK2 (human, rec, Carna Bioscience, 10 ng/μl-137 nM final concentration) and PDC (isolated from porcine heart, Sigma-Aldrich, 20 mU/ml final concentration) are incubated in the absence or presence of the test compound (10 dilution concentrations) for 30 min at room temperature in kinase buffer (15 mM potassium phosphate buffer, pH 7.0, 60 mM KCl, 1.5 mM DTT, 2.5 mM MgCl2, 0.0125% (w/v) BSA, 0.125% Pluronic F-68). The kinase reaction is started by the addition of 4 μl ATP substrate solution (fc 5 μM in kinase buffer). After 30 min incubation at 37° C. 40 μl of PDC reaction solution (100 mM Tris/HCl, pH 7.8, 0.5 mM EDTA, 1 mM MgCl2, 50 mM NaF, 0.25 mM Coenzyme A, 5 mM pyruvate, 1 mM NAD, 5 mM DTT, […] thiamine pyrophosphate) is added. The first fluorescence measurement is performed on a Perkin Elmer Envision (Exc 340 nm, Em 450 nm). The reaction is incubated for 45 min at room temperature. Afterwards a second fluorescence measurement is performed and the PDC activity is calculated by the difference between both measurements. As full value for the PDHK2 assay the inhibitor-free PDHK2 reaction is used. The pharmacological zero value used is DCA (Sigma-Aldrich) in a final concentration of 3 mM. The inhibitory values (IC50) were determined using either the program Symyx Assay Explorer® or Condosseo® from GeneData.

IC50 | SMILES
0.3 to 3 µM | Cc1cc(C2CCN(C(=O)[C@@](C)(O)C(F)(F)F)CC2)nn1-c1ccc(F)cc1 [Compound A40, (R)-1-{4-[1-(4-Fluoro-phenyl)-5-methyl-1H-pyrazol-3-yl]-piperidin-1-yl}-3,3,3-trifluoro-2-hydroxy-2-methyl-propan-1-one]
3 to 50 µM | Cn1ccc(C2CCN(C(=O)[C@@](C)(O)C(F)(F)F)CC2)n1 [Compound A99, (R)-3,3,3-Trifluoro-2-hydroxy-2-methyl-1-[4-(1-methyl-1H-pyrazol-3-yl)piperidin-1-yl]-propan-1-one]
0.3 to 3 µM | C[C@@](O)(C(=O)N1CCC(c2ccnn2-c2ccc(C(F)(F)F)cn2)CC1)C(F)(F)F [Compound A84, (R)-3,3,3-Trifluoro-2-hydroxy-2-methyl-1-{4-[2-(5-trifluoromethyl-pyridin-2-yl)-2H-pyrazol-3-yl]-piperidin-1-yl}-propan-1-one]
0.3 to 3 µM | C[C@@](O)(C(=O)N1CCC(c2ccnn2C2CCCC2)CC1)C(F)(F)F [Compound A51, (R)-1-[4-(2-Cyclopentyl-2H-pyrazol-3-yl)-piperidin-1-yl]-3,3,3-trifluoro-2-hydroxy-2-methyl-propan-1-one]
0.3 to 3 µM | Cc1ccc(-n2nncc2C2CCN(C(=O)[C@@](C)(O)C(F)(F)F)CC2)cc1 [Compound A59, (R)-3,3,3-Trifluoro-2-hydroxy-2-methyl-1-[4-(3-p-tolyl-3 H-[1,2,3]triazol-4-yl)piperidin-1-yl]-propan-1-one]
0.3 to 3 µM | C[C@@](O)(C(=O)N1CCC(c2ccnn2-c2ccc(C#N)nc2)CC1)C(F)(F)F [Compound A81, 5-{5-[1-((R)-3,3,3-Trifluoro-2-hydroxy-2-methyl-propionyl)-piperidin-4-yl]-pyrazol-1-yl}-pyridine-2-carbonitrile]
0.3 to 3 µM | C[C@@](O)(C(=O)N1CCC(c2ccn(-c3ncc(F)cc3F)n2)CC1)C(F)(F)F [Compound A109, (R)-1-{4-[1-(3,5-Difluoro-pyridin-2-yl)-1H-pyrazol-3-yl]-piperidin-1-yl}-3,3,3-trifluoro-2-hydroxy-2-methyl-propan-1-one]
3 to 50 µM | CC(C)Cn1nccc1C1CCN(C(=O)[C@@](C)(O)C(F)(F)F)CC1 [Compound A76, (R)-3,3,3-Trifluoro-2-hydroxy-1-[4-(2-isobutyl-1H-pyrazol-3-yl)-1-piperidyl]-2-methyl-propan-1-one]
3 to 50 µM | C[C@H]1CN(C(=O)[C@@](C)(O)C(F)(F)F)CC[C@H]1c1ccn(-c2ccc(F)cc2)n1 [Compound A45, (R)-3,3,3-Trifluoro-1-{(3R,4R)-4-[1-(4-fluoro-phenyl)-1H-pyrazol-3-yl]-3-methyl-piperidin-1-yl}-2-hydroxy-2-methyl-propan-1-one]
3 to 50 µM | C[C@@](O)(C(=O)N1CCC(c2ccn[nH]2)CC1)C(F)(F)F [Compound A104, (R)-3,3,3-Trifluoro-2-hydroxy-2-methyl-1-[4-(2H-pyrazol-3-yl)-piperidin-1-yl]-propan-1-one]
3 to 50 µM | CN1CCC(n2nccc2C2CCN(C(=O)[C@@](C)(O)C(F)(F)F)CC2)CC1 [Compound A75, (R)-3,3,3-Trifluoro-2-hydroxy-2-methyl-1-{4-[2-(1-methyl-piperidin-4-yl)-2H-pyrazol-3-yl]-piperidin-1-yl}-propan-1-one]
3 to 50 µM | Cc1cc(C2CCN(C(=O)[C@@](C)(O)C(F)(F)F)CC2)nn1-c1ccccc1 [Compound A47, (R)-1-[4-(5-Methyl-1-phenyl-1H-pyrazol-3-yl)-piperidin-1-yl]-3,3,3-trifluoro-2-hydroxy-2-methyl-propan-1-one]
0.3 to 3 µM | C[C@@](O)(C(=O)N1CCC(c2nncn2-c2ccc(Cl)cc2)CC1)C(F)(F)F [Compound A73, (R)-1-{4-[4-(4-Chloro-phenyl)-4H-[1,2,4]triazol-3-yl]-piperidin-1-yl}-3,3,3-trifluoro-2-hydroxy-2-methyl-propan-1-one]

Reference: patent US9751861B2, “N1-(3,3,3-trifluoro-2-hydroxo-2-methylpropionyl)-piperidine derivatives as inhibitors of pyruvate dehydrogenase kinase” (MERCK PATENT GMBH, priority 2013, dated 2017)
